Results as given in publication PMC6895199, “A new antiviral scaffold for human norovirus identified with computer-aided approaches on the viral polymerase” (Scientific Reports, 2019).

Molecular target: HuNoV (GII.4) RdRp (Norovirus Hu/GII.4/Sydney/NSW0514/2012/AU, UniProt K4L8Z7)
Experiment: Quantitative fluorescent RdRp activity assay (PicoGreen, poly(C) template)
Format: biochemical, human norovirus Sydney 2012
Conditions: 20 µM; for inhibition at 20 µM: read-out: inhibition of HuNoV RdRp activity at fixed concentration
Method in brief: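 Enzyme (400 ng) preincubated with compound 10 min at 30 °C, then reacted 15 min at 30 °C with 45 μM GTP, 10 ng/μL poly(C), 2.5 mM MnCl2, pH 7.5. Stopped with EDTA; dsRNA quantified by PicoGreen. Six concentrations (0.1–100 µM) gave IC50, or single 20 µM screen vs 0.5% DMSO.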

Compound	inhibition at 20 µM [%]	inhibition of HuNoV RdRp activity at fixed concentration
Cc1ccc(C(=O)NC(=S)Nc2ccc(N3CCN(C(=O)c4cccs4)CC3)cc2)cc1 [Compound 52, 4-Methyl-N-((4-(4-(thiophene-2-carbonyl)piperazin-1-yl)phenyl)carbamothioyl)benzamide]	~15	–
O=C(NC(=S)Nc1ccc(N2CCN(C(=O)c3cccs3)CC2)cc1)c1sc2ccccc2c1Cl [Compound 48, 3-Chloro-N-((4-(4-(thiophene-2-carbonyl)piperazin-1-yl)phenyl)carbamothioyl)benzo[b]thiophene-2-carboxamide, reference compound]	20	–
O=C(NC(=S)Nc1ccc(N2CCN(C(=O)c3nccs3)CC2)cc1)c1sc2ccccc2c1Cl [Compound 56, 3-Chloro-N-((4-(4-(thiazole-2-carbonyl)piperazin-1-yl)phenyl)carbamothioyl)benzo[b]thiophene-2-carboxamide]	–	does not affect enzymatic inhibition activity
